From patent US20100263095A1, “METHOD FOR GROWING SUGARCANE” (SYNGENTA CROP PROTECTION, INC., priority 2007, published 2010) come the findings set out here.

Assay [1] relates to sugar cane Variety RB 86-7515. Description: Greenhouse pot test: effect of formulated fipronil on vigour. Type of assay: in vivo. Conditions: result in words.
Experimental: Greenhouse test with sugarcane buds growing in pots were conducted to study the effect of fipronil equivalent to an application rate of 200 g. ha^−1 on “vigour”, evaluating tillers, plant height, leaf width and culm diameter on sugar cane Variety RB 86-7515.
Twenty 1 L pots were filled with 16 L of clay soil, 1.6 L of sand and 8 g of nitrogen, 28 g of phosphorus (P2O5) and 16 g of potassium (K2O). Six carretels of 4 cm length with one bud were planted in each pot (treatments 1, 2, 4 and 5). Two stalks with three buds were planted in each control pot (treatments 3 and 6) to simulate conventional planting. A layer of 3 cm of soil was used to cover the carretels. The carretels of treatments 1 and 2 were treated with 200 g ai·ha^−1 of fipronil, by dipping the carretels in the slurry for 3 min, based on the uptake capacity of carretels. The stalks were treated simulating a furrow application at 100 L·ha^−1 of slurry. Experimental design adopted was randomized complete block with four replications. The pots were maintained with adequate moisture during the test. Evaluations of: plant height, leaf width, culm diameter and number of tillers were done at 20, 30 and 42 days after planting.
In assay [2] the test system is sugarcane Variety RB 86-7515. Kind of assay: Greenhouse pot test: effect of formulated thiamethoxam on vigour. Format: in vivo, sugar cane. As to conditions: result in words. As for the experimental part:
This trial was conducted on Variety RB 86-7515.

For assay [3], the system named is sugar cane Variety RB 86-7515. Description: Greenhouse pot test: effect of formulated abamectin on vigour. Format: in vivo. Conditions: Carretel with one bud; 100 g ai/ha; 42 days after planting.
Experimental: Greenhouse test with sugarcane buds growing in pots were conducted to study the effect of formulated abamectin regarding “vigour”, tillers, plant height, leaf width and culm diameter on sugar cane Variety RB 86-7515.
Twenty 1 L pots were filled with 16 L of clay soil, 1.6 L of sand and 8 g of nitrogen, 28 g of phosphorus (P2O5) and 16 g of potassium (K2O). Six carretels of 4 cm length with only one bud were planted in each pot (treatments 1, 2, 4 and 5). Two stalks with three buds were planted in each control pot (treatments 3 and 6) to simulate conventional planting. A layer of 3 cm of soil was used to cover the carretels. The carretels of treatments 1, 2 were treated with 200 ml/ha of abamectin, by dipping the carretels in the slurry for 3 min, based on the uptake capacity of carretels. The stalks were treated simulating a furrow application at 100 L·ha^−1 of slurry. Experimental design adopted was randomized complete block with four replications. The pots were maintained with adequate moisture during the test. Evaluations of: plant height, leaf width, culm diameter and number of tillers were done at 20, 30 and 42 days after planting.

Consider `N#Cc1nn(-c2c(Cl)cc(C(F)(F)F)cc2Cl)c(N)c1[S+]([O-])C(F)(F)F` (centres unmarked) [Fipronil, fipronil], for which, in assay [1], the “height of the resultant plants in comparison with the control” value is listed as “decreased the height”. In the case of `CN1COCN(Cc2cnc(Cl)s2)/C1=N\[N+](=O)[O-]` [Thiamethoxam, thiamethoxam], in assay [2] (carretels), the “number of tillers in comparison with the corresponding controls” value is “increased number of tillers” and the “plant height in comparison with the corresponding controls” value is “reduced plant height”. The ““quality” compared with the other treatments” value in assay [2] (overall assessment, not apparent from the listed parameters) was “increase in “quality” greater than the other treatments”. On to abamectin, for which the Tillers in assay [3] was found to be 14 number.
